Numbers after ± are expanded uncertainties.
Details: 303.15 K, Liquid, Vibrating tube method

CCCCCC(=O)OCC(COC(=O)CCCCC)(COC(=O)CCCCC)COC(=O)CCCCC [pentaerythritol tetrahexanoate]
Details	mass density [kg/m3]
20855 kPa	1001 ± 1.2
20888 kPa	1001.2 ± 1.2
20914 kPa	1001.2 ± 1.2
20942 kPa	1001.1 ± 1.2
20975 kPa	1001.1 ± 1.2
21003 kPa	1001.2 ± 1.2
21057 kPa	1001.1 ± 1.2
21090 kPa	1001.2 ± 1.2
21118 kPa	1001.3 ± 1.2
21151 kPa	1001.3 ± 1.2
21178 kPa	1001.2 ± 1.2
21207 kPa	1001.4 ± 1.2
21241 kPa	1001.3 ± 1.2
21268 kPa	1001.5 ± 1.2
21297 kPa	1001.3 ± 1.2
21331 kPa	1001.4 ± 1.2
21360 kPa	1001.3 ± 1.2
21388 kPa	1001.4 ± 1.2
21422 kPa	1001.4 ± 1.2
21451 kPa	1001.6 ± 1.2
21480 kPa	1001.5 ± 1.2
21514 kPa	1001.5 ± 1.2
21543 kPa	1001.5 ± 1.2
21572 kPa	1001.4 ± 1.2
21607 kPa	1001.6 ± 1.2
21636 kPa	1001.5 ± 1.2
21665 kPa	1001.5 ± 1.2
21701 kPa	1001.5 ± 1.2
21731 kPa	1001.6 ± 1.2
21761 kPa	1001.6 ± 1.2
21796 kPa	1001.7 ± 1.2
21826 kPa	1001.7 ± 1.2
21855 kPa	1001.7 ± 1.2
21885 kPa	1001.6 ± 1.2
21921 kPa	1001.7 ± 1.2
21951 kPa	1001.7 ± 1.2
21981 kPa	1001.8 ± 1.2
22018 kPa	1001.8 ± 1.2
22048 kPa	1001.8 ± 1.2
22079 kPa	1001.8 ± 1.2
22116 kPa	1001.9 ± 1.2
22149 kPa	1001.8 ± 1.2
22180 kPa	1001.9 ± 1.2
22211 kPa	1002 ± 1.2
22242 kPa	1001.8 ± 1.2
22280 kPa	1001.9 ± 1.2
22311 kPa	1002 ± 1.2
22348 kPa	1002 ± 1.2
22379 kPa	1002 ± 1.2
22411 kPa	1002.1 ± 1.2
22442 kPa	1002 ± 1.2
22481 kPa	1002.1 ± 1.2
22513 kPa	1002 ± 1.2
22546 kPa	1002 ± 1.2
22581 kPa	1002.1 ± 1.2
22619 kPa	1002.2 ± 1.2
22651 kPa	1002.1 ± 1.2
22683 kPa	1002.2 ± 1.2
22715 kPa	1002.2 ± 1.2
22754 kPa	1002.2 ± 1.2
22786 kPa	1002.3 ± 1.2
22819 kPa	1002.3 ± 1.2
22858 kPa	1002.4 ± 1.2
22891 kPa	1002.2 ± 1.2
22930 kPa	1002.3 ± 1.2
22964 kPa	1002.4 ± 1.2
22998 kPa	1002.3 ± 1.2
23032 kPa	1002.4 ± 1.2
23072 kPa	1002.4 ± 1.2
23106 kPa	1002.3 ± 1.2
23140 kPa	1002.4 ± 1.2
23181 kPa	1002.4 ± 1.2
23215 kPa	1002.5 ± 1.2
23256 kPa	1002.4 ± 1.2
23291 kPa	1002.4 ± 1.2
23325 kPa	1002.5 ± 1.2
23359 kPa	1002.5 ± 1.2
23398 kPa	1002.5 ± 1.2
24292 kPa	1003 ± 1.2
24323 kPa	1003 ± 1.2
24354 kPa	1003.1 ± 1.2
24390 kPa	1002.9 ± 1.2
24841 kPa	1003.3 ± 1.2
24870 kPa	1003.4 ± 1.2
24905 kPa	1003.4 ± 1.2
24964 kPa	1003.4 ± 1.2
25000 kPa	1003.5 ± 1.2
25312 kPa	1003.6 ± 1.2
25349 kPa	1003.7 ± 1.2
25380 kPa	1003.6 ± 1.2
25410 kPa	1003.8 ± 1.2
25447 kPa	1003.7 ± 1.2
25478 kPa	1003.7 ± 1.2
25518 kPa	1003.7 ± 1.2
25545 kPa	1003.9 ± 1.2
25582 kPa	1003.9 ± 1.2
25614 kPa	1003.7 ± 1.2
25643 kPa	1003.8 ± 1.2
25916 kPa	1003.9 ± 1.2
25947 kPa	1003.9 ± 1.2
25973 kPa	1004.1 ± 1.2
26004 kPa	1004 ± 1.2
26030 kPa	1004.2 ± 1.2
26056 kPa	1004 ± 1.2
26088 kPa	1004.1 ± 1.2
26114 kPa	1004.1 ± 1.2
26140 kPa	1004.1 ± 1.2
26167 kPa	1004.2 ± 1.2
26199 kPa	1004.1 ± 1.2
26225 kPa	1004.2 ± 1.2
26258 kPa	1004.3 ± 1.2
26285 kPa	1004.1 ± 1.2
26312 kPa	1004.2 ± 1.2
26339 kPa	1004.2 ± 1.2
26371 kPa	1004.2 ± 1.2
26399 kPa	1004.2 ± 1.2
26427 kPa	1004.2 ± 1.2
26460 kPa	1004.3 ± 1.2
26488 kPa	1004.3 ± 1.2
26520 kPa	1004.3 ± 1.2
26545 kPa	1004.4 ± 1.2
26569 kPa	1004.3 ± 1.2
26593 kPa	1004.4 ± 1.2
26623 kPa	1004.3 ± 1.2
26648 kPa	1004.2 ± 1.2
26672 kPa	1004.4 ± 1.2
26701 kPa	1004.4 ± 1.2
26726 kPa	1004.3 ± 1.2
26751 kPa	1004.5 ± 1.2
26776 kPa	1004.4 ± 1.2
26806 kPa	1004.4 ± 1.2
26830 kPa	1004.4 ± 1.2
26856 kPa	1004.5 ± 1.2
26885 kPa	1004.5 ± 1.2
26910 kPa	1004.5 ± 1.2
26936 kPa	1004.7 ± 1.2
26966 kPa	1004.6 ± 1.2
26991 kPa	1004.4 ± 1.2
27016 kPa	1004.6 ± 1.2
27041 kPa	1004.7 ± 1.2
27071 kPa	1004.6 ± 1.2
27097 kPa	1004.6 ± 1.2
27127 kPa	1004.5 ± 1.2
27152 kPa	1004.5 ± 1.2
27178 kPa	1004.7 ± 1.2
27208 kPa	1004.8 ± 1.2
27234 kPa	1004.7 ± 1.2
27260 kPa	1004.7 ± 1.2
27291 kPa	1004.6 ± 1.2
27317 kPa	1004.6 ± 1.2
27343 kPa	1004.7 ± 1.2
27369 kPa	1004.9 ± 1.2
27400 kPa	1004.9 ± 1.2
27426 kPa	1004.8 ± 1.2
27458 kPa	1004.7 ± 1.2
27484 kPa	1004.8 ± 1.2
27511 kPa	1004.8 ± 1.2
27537 kPa	1004.8 ± 1.2
27564 kPa	1004.8 ± 1.2
27595 kPa	1004.9 ± 1.2
27621 kPa	1004.9 ± 1.2
27654 kPa	1005 ± 1.2
27682 kPa	1004.9 ± 1.2
27708 kPa	1005 ± 1.2
27734 kPa	1004.9 ± 1.2
27761 kPa	1005 ± 1.2
27793 kPa	1005 ± 1.2
27820 kPa	1005.1 ± 1.2
27852 kPa	1005.1 ± 1.2
27879 kPa	1005.1 ± 1.2
27906 kPa	1005 ± 1.2
27938 kPa	1005 ± 1.2
27965 kPa	1005.2 ± 1.2
27993 kPa	1005.2 ± 1.2
28027 kPa	1005.2 ± 1.2
28056 kPa	1005 ± 1.2
28083 kPa	1005.1 ± 1.2
28110 kPa	1005.1 ± 1.2
28143 kPa	1005.1 ± 1.2
28171 kPa	1005.3 ± 1.2
28199 kPa	1005.3 ± 1.2
28227 kPa	1005.2 ± 1.2
28260 kPa	1005.2 ± 1.2
28288 kPa	1005.2 ± 1.2
28317 kPa	1005.3 ± 1.2
28351 kPa	1005.4 ± 1.2
28379 kPa	1005.3 ± 1.2
28409 kPa	1005.3 ± 1.2
28443 kPa	1005.3 ± 1.2
28471 kPa	1005.3 ± 1.2
28500 kPa	1005.4 ± 1.2
28535 kPa	1005.4 ± 1.2
28564 kPa	1005.4 ± 1.2
28594 kPa	1005.5 ± 1.2
28658 kPa	1005.5 ± 1.2
28687 kPa	1005.5 ± 1.2
28718 kPa	1005.5 ± 1.2
28743 kPa	1005.5 ± 1.2
28769 kPa	1005.6 ± 1.2
28800 kPa	1005.6 ± 1.2
28826 kPa	1005.5 ± 1.2
28851 kPa	1005.6 ± 1.2
28877 kPa	1005.6 ± 1.2
28909 kPa	1005.6 ± 1.2
29460 kPa	1006.1 ± 1.2
29484 kPa	1005.9 ± 1.2
29506 kPa	1005.9 ± 1.2
29534 kPa	1006 ± 1.2
29556 kPa	1006 ± 1.2
29580 kPa	1006 ± 1.2
29607 kPa	1006 ± 1.2
29630 kPa	1006 ± 1.2
29658 kPa	1006.1 ± 1.2
29682 kPa	1006.1 ± 1.2
29705 kPa	1006.1 ± 1.2
29729 kPa	1006 ± 1.2
29756 kPa	1006 ± 1.2
29780 kPa	1006.1 ± 1.2
29804 kPa	1006.2 ± 1.2
29831 kPa	1006.2 ± 1.2
29856 kPa	1006.1 ± 1.2
29879 kPa	1006.1 ± 1.2
29902 kPa	1006.2 ± 1.2
29931 kPa	1006.1 ± 1.2
29954 kPa	1006.1 ± 1.2
29983 kPa	1006.2 ± 1.2
30006 kPa	1006.3 ± 1.2
30030 kPa	1006.3 ± 1.2
30059 kPa	1006.2 ± 1.2
30083 kPa	1006.3 ± 1.2
30108 kPa	1006.3 ± 1.2
30132 kPa	1006.3 ± 1.2
30161 kPa	1006.4 ± 1.2
30185 kPa	1006.4 ± 1.2
30209 kPa	1006.2 ± 1.2
30233 kPa	1006.3 ± 1.2
30262 kPa	1006.3 ± 1.2
30287 kPa	1006.3 ± 1.2
31166 kPa	1006.8 ± 1.2
31197 kPa	1006.8 ± 1.2
31224 kPa	1006.8 ± 1.2
31255 kPa	1006.9 ± 1.2
31283 kPa	1006.9 ± 1.2
31310 kPa	1006.9 ± 1.2
31337 kPa	1006.9 ± 1.2
31370 kPa	1007 ± 1.2
31398 kPa	1007 ± 1.2
31426 kPa	1007 ± 1.2
31459 kPa	1006.9 ± 1.2
31483 kPa	1007.1 ± 1.2
31506 kPa	1007.1 ± 1.2
31534 kPa	1006.9 ± 1.2
31556 kPa	1007.1 ± 1.2
31580 kPa	1007 ± 1.2
31608 kPa	1007.1 ± 1.2
31632 kPa	1007.1 ± 1.2
31656 kPa	1007.2 ± 1.2
31683 kPa	1007.1 ± 1.2
31701 kPa	1007.2 ± 1.2
31719 kPa	1007.1 ± 1.2
31737 kPa	1007.2 ± 1.2
31758 kPa	1007.1 ± 1.2
31777 kPa	1007.2 ± 1.2
31795 kPa	1007.2 ± 1.2
31814 kPa	1007.4 ± 1.2
31835 kPa	1007.2 ± 1.2
31853 kPa	1007.2 ± 1.2
31875 kPa	1007.2 ± 1.2
31893 kPa	1007.3 ± 1.2
31911 kPa	1007.3 ± 1.2
31933 kPa	1007.2 ± 1.2
31951 kPa	1007.3 ± 1.2
31969 kPa	1007.3 ± 1.2
31990 kPa	1007.5 ± 1.2
32009 kPa	1007.4 ± 1.2
32027 kPa	1007.3 ± 1.2
32049 kPa	1007.3 ± 1.2
32068 kPa	1007.3 ± 1.2
32086 kPa	1007.4 ± 1.2
32104 kPa	1007.4 ± 1.2
32127 kPa	1007.5 ± 1.2
32145 kPa	1007.4 ± 1.2
32167 kPa	1007.4 ± 1.2
32186 kPa	1007.4 ± 1.2
32204 kPa	1007.4 ± 1.2
32226 kPa	1007.5 ± 1.2
32244 kPa	1007.4 ± 1.2
32403 kPa	1007.6 ± 1.2
32426 kPa	1007.6 ± 1.2
